Assay: gradient 5% acetonitrile 3 min, to 50% in 2 min, to 85% in 15 min, held 3 min, 100 µL/min
Details: column: Zorbax Extend-C18 2.1 x 50 mm; eluents: water / acetonitrile, 0.1% formic acid
How it was run: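 A Zorbax Extend-C18 column (2.1 × 50 mm, 1.8 μm) run at 100 μL/min with water and acetonitrile, both containing 0.1% formic acid, separated mixtures of ~100 pure standards. The HPLC was coupled to a quadrupole time-of-flight mass spectrometer operated in positive and negative ionization mode, with dead and dwell volumes of 40 μL and 900 μL. Each retention time was taken from a computationally picked adduct peak that was then manually inspected.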

| Compound | RP-LC retention time |
| --- | --- |
| O=C(CSc1ncn[nH]1)Nc1ccc2c(c1)OCCO2 | 591 s |
| CCN1CC(c2nc(-c3ccccc3)no2)C2(CCCC2)C1 (stereo not given) | 709 s |
| N#CC1(C(=O)NCCOc2ccc(F)cc2)CC1 | 728 s |
| COc1cccc(-c2noc(CSc3nccn3-c3ccccc3)n2)c1OC | 857 s |
| O=S(=O)(NC1CCCCCC1)c1ccc(-c2nnc(C3CCC3)o2)o1 | 996 s |
| O=S(=O)(NCc1nnnn1-c1ccc(Cl)cc1)c1ccc2c(c1)OCCO2 | 773 s |
| Cc1ccc(S(=O)(=O)Nc2ccc(C)n(CC(=O)O)c2=O)cc1 | 694 s |
| COc1ccc(C2(C(=O)Nc3cc(-c4nnc(C)o4)sc3C)CC2)cc1 | 989 s |
| CC1CCCN(CCCNC(=O)CCCn2c(=O)c3cccn3c3ccc(Br)cc32)C1 (stereo not given) | 677 s |
| CCOc1ccc2c(n1)CCN(C(=O)NCCOC)C2 | 624 s |
| O=C(O)c1cnc(N2CCSCC2)nc1-c1cccc(Cl)c1 | 964 s |
| CC1CCC(NC(=O)C2CCCN(S(=O)(=O)c3c[nH]c(C(=O)N4CCCCCC4)c3)C2)CC1 (stereo not given) | 938 s |
| CCc1ccc(NC(=O)NCCc2cn(CC(C)C)c3ncccc23)cc1 | 919 s |
| O=C(CCN1C(=O)c2cccc3cccc(c23)C1=O)NC1CCS(=O)(=O)C1 (stereo not given) | 641 s |
| O=C(Nc1ccc(OCc2nnc(-c3ccccc3)o2)cc1)c1cccnc1 | 743 s |
| CC(C)N1CCN(C(=O)c2csc(N3CCN(c4ccc(Cl)cc4)CC3)n2)CC1 | 706 s |
| CCOC(=O)C(C)NC(=O)N1CCN(c2nc3ccccc3nc2C(F)(F)F)CC1 (stereo not given) | 921 s |
| O=C(NCc1ccncc1)C1=C2CCCN2c2ccc(F)cc2S1(=O)=O | 583 s |
| COCCN1C(=O)CC[C@]2(C(=O)N(C)Cc3cccnc3)CCCC[C@@H]12 | 544 s |
| O=S(=O)(c1ccccc1Br)N1CCC(c2noc(-c3ccccc3)n2)CC1 | 1160 s |

| Compound | RP-LC retention time |
| --- | --- |
| COc1ccc(Cl)cc1Nc1nc(N)nc(CN2CCN(c3ccccn3)CC2)n1 | 612 s |
| CCNC(=O)C1(CCO)CCN(c2ncccn2)C1 (stereo not given) | 539 s |
| COc1cccc(-c2[nH]ncc2CN2CCC3(CCC3O)CC2)c1 (stereo not given) | 586 s |
| COC(=O)c1c(C)[nH]c(C(=O)N2CCC(CC(=O)NCCCc3ccccc3)CC2)c1C | 867 s |
| CCN1CCN(CCNC(=O)Cn2ccc3c(C)nn(CC)c3c2=O)CC1 | 557 s |
| COC(=O)c1ccc(C2Nc3ccc(C)cc3[C@H]3OCC[C@@H]23)cc1 (stereo not given in full) | 1050 s |
| CN(CCc1noc(COc2ccc(F)cc2)n1)C(=O)Nc1ccc(F)c(Cl)c1 | 953 s |
| CSc1nnc(NC(=O)CN(C)S(C)(=O)=O)s1 | 603 s |
| Cc1ccc(C)c(Cn2nnc(C(=O)O)c2-c2ccccn2)c1 | 752 s |
| CC(C)C(=O)N1CCc2c(c(C(=O)N3CCC(C(=O)N4CCC5(CC4)OCCO5)CC3)nn2C)C1 | 626 s |
| COCCCNc1nc(-c2ccc(OC)cc2)nc2ccccc12 | 690 s |
| CCOC(=O)c1csc(NC(=O)c2ccccc2[N+](=O)[O-])n1 | 721 s |
| Cc1c(C(=O)N2CCC(C)CC2)cnn1-c1ccc(-c2nc(C(C)(C)C)no2)cn1 | 1250 s |
| COc1ccccc1-c1nc(Cn2nnc(-c3nc(-c4cccc(OC)c4OC)no3)c2C)c(C)o1 | 1050 s |
| Cc1ccc(S(=O)(=O)N2CCc3nc[nH]c3C2)cc1C | 611 s |
| Nc1ncnc(N2CCN(c3ccc(Cl)c(Cl)c3)CC2)c1[N+](=O)[O-] | 909 s |
| Cc1cc(N2CCN(C)CC2)nc2ccc(NC(=S)N3CCC(C)CC3)cc12 | 604 s |
| CCOC(=O)C1=C(C)NC2=C(C(=O)c3ccccc32)C1c1ccc(OCC)cc1 (stereo not given) | 718 s |
| COc1ccc(N2CC(c3nc(-c4ccc(C)cc4)no3)CC2=O)cc1OC (stereo not given) | 866 s |
| O=C(CS(=O)Cc1cnn(-c2ccccc2)c1-n1cccc1)NCCc1ccc(Cl)cc1 (stereo not given) | 892 s |

| Compound | RP-LC retention time |
| --- | --- |
| c1ccc(-c2nc3nc4c(c(N5CCN(C6CCCCC6)CC5)n3n2)CCCC4)cc1 | 668 s |
| COCC1CN(C2CCC2)CC12CCN(C(=O)c1sccc1C)CC2 (stereo not given) | 597 s |
| Cc1ccc2c(c1)C(O)(CC(=O)c1ccc(F)cc1)C(=O)N2 (stereo not given) | 717 s |
| COc1ccc(-c2nc(NCCC(C)C)c3ccccc3n2)cc1 | 844 s |
| CC(=O)N1CCc2cc(S(=O)(=O)CCC(=O)N3CCC(CCOc4ccccc4)C3)ccc21 (stereo not given) | 822 s |
| COc1ccccc1CNS(=O)(=O)c1cc(-c2cc(C(F)(F)F)on2)sc1C | 1120 s |
| O=C1Nc2ccccc2C(=O)N2CCCC12 (stereo not given) | 590 s |
| CCc1noc(C2(NC(=O)c3cc(-c4ccccc4)n[nH]3)CCCCC2)n1 | 906 s |
| CCCn1ncc(N2CCC(C(=O)N3CCN(CC)CC3)CC2)cc1=O | 567 s |
| COc1ccc(-c2noc(C3CC(=O)N(c4cc(C)ccc4C)C3)n2)cc1 (stereo not given) | 988 s |
| Cn1cc(CC(=O)Nc2ccc(F)cc2)c2cccnc21 | 703 s |
| Cc1cc(C)cc(Nc2c(-c3cc(Br)ccc3O)nc3ncccn23)c1 | 1140 s |
| CCn1cc(C(=O)N2CCC3(CCC3O)CC2)cn1 (stereo not given) | 598 s |
| CCOC(=O)N1CCN(C(=O)CSc2nc(-c3cccc(C)c3)ns2)CC1 | 941 s |
| CCOc1ccc2nc(Nc3nc(C)c4c(n3)CCCC4)nc(C)c2c1 | 573 s |
| CC(=O)c1cccc(C(=O)NC2(c3nc(C)no3)CCCCC2)c1 | 798 s |
| Cn1ncc(NC(=O)c2ccc(Br)cc2)c(N2CCOCC2)c1=O | 814 s |
| Cc1cc(C(=O)N2CCCC2)c2cc(Br)ccc2n1 | 677 s |

The next lines start with the values.

| RP-LC retention time | Compound |
| --- | --- |
| 1080 s | CC(CCc1ccco1)NC(=O)C1CCN(c2nc(-c3ccc(Cl)cc3)no2)CC1 (stereo not given) |
| 824 s | O=C(NCc1ccc2c(c1)N(C(=O)c1ccc(Cl)cc1)CC2)C1CC1 |
| 892 s | CCOc1ccc(C(=O)N2CCCC(c3nnc(-c4ccccc4)o3)C2)cc1 (stereo not given) |
| 815 s | CCS(=O)(=O)NCc1ccc2c(c1)CCN2C(=O)c1cccc(C)c1 |
| 1280 s | Cc1ccc(S(=O)(=O)c2cnc(N3CCN(c4ccccc4Cl)CC3)nc2N)cc1C |
| 662 s | CCN(CC)c1ccc(NC(=O)C2CCCN(c3ccc(=O)n(-c4cccc(Cl)c4)n3)C2)c(C)c1 (stereo not given) |
| 726 s | CC(Cc1ccco1)NC(=O)C1CCN(S(=O)(=O)c2ccc3c(c2)NC(=O)CO3)CC1 (stereo not given) |
| 807 s | CCc1cccc(NS(=O)(=O)c2cc(-c3c(CC)noc3NC(C)=O)ccc2OC)c1 |
| 908 s | CCN(CC)c1nc2ccsc2c(=O)n1CC(=O)NCc1ccc(Cl)cc1 |
| 948 s | CCCN1C(=O)COc2ccc(-c3noc(-c4ccc(NC(C)=O)cc4)n3)cc21 |
| 573 s | COCC(=O)Nc1ccc2nc(N3CCN(Cc4ccccc4OC)CC3)cc(C(=O)O)c2c1 |
| 1190 s | CCN(CC)S(=O)(=O)c1cc(-c2nnc(-c3ccc(C)cc3)o2)ccc1Cl |
| 704 s | CCOC(=O)c1cccc(Nc2c(C(=O)N3CCCCC3CC)cnc3nc(C)ccc23)c1 (stereo not given) |
| 656 s | COc1ccc(C2(C(=O)N3CCCC(Cn4cnc5cccnc54)C3)CC2)cc1 (stereo not given) |
| 1200 s | Cc1ccc(NC(=O)C2CCCN(c3nccnc3Sc3ccc(C)cc3)C2)cc1 (stereo not given) |
| 821 s | Cc1ccc(Cl)cc1NC(=O)C1CC(=O)N(c2ccc3c(c2)CCN3C(=O)C2CC2)C1 (stereo not given) |

| RP-LC retention time | Compound |
| --- | --- |
| 942 s | Cc1nn2c(CNS(=O)(=O)c3ccc(F)c(Cl)c3)c(-c3ccccc3)nc2s1 |
| 908 s | CCN1C(=O)C2CCCCN2c2ccc(C(=O)NCc3ccccc3)cc21 (stereo not given) |
| 597 s | CCCNC(=O)C1CCCN(c2cc(=O)n(C)c(=O)n2C)C1 (stereo not given) |
| 903 s | O=C(CCc1nnc2c(N3CCCCC3)nc3ccccc3n12)NCc1ccccc1F |
| 1110 s | CCCn1cc(C2=CCN(S(=O)(=O)Cc3cccc(Cl)c3)CC2)c2cccnc21 |
| 615 s | Cc1oc(-c2ccc(Cl)cc2)nc1CN1CCC(C(=O)NCCCN(C)Cc2ccccc2)CC1 |
| 796 s | CC1CCCN(c2nc(=O)n(CC(=O)Nc3ccc4c(c3)OCO4)c3ccccc23)C1 (stereo not given) |
| 762 s | COc1ccc(CC(=O)NC2CCN(c3cc(-c4ccc(Cl)cc4)[nH]n3)C2)cc1 (stereo not given) |
| 1120 s | COc1ccc(-c2nnc(-c3ccc(C)c(S(=O)(=O)N4CCCCC4)c3)o2)cc1 |
| 976 s | O=C(Nc1ccc(Cl)cc1)C1CCCN(S(=O)(=O)Cc2ccccc2)C1 (stereo not given) |
| 786 s | Cc1ccc(Cl)c2c1NC(=O)C2(O)CC(=O)c1ccc(F)cc1 (stereo not given) |
| 727 s | Cc1ccn2c(Nc3ccc4c(c3)OCCO4)c(-c3cccc(Cl)c3)nc2c1 |
| 675 s | O=C(NCC(c1ccc2c(c1)OCO2)N1CCOCC1)C(=O)Nc1ccc(F)cc1F (stereo not given) |
| 942 s | Cc1ccc(NC(=O)C2CCN(S(=O)(=O)c3ccc4c(c3)sc(=O)n4C(C)C)CC2)cc1 |
| 634 s | Cc1cc(=O)n(CC(=O)Nc2cccc(F)c2)c(N2CCCC2)n1 |
| 1340 s | O=C(CCC1CCCC1)Nc1nc(-c2ccc3ccccc3c2)cs1 |
